Reference: patent US20160237158A1, “Methods and Compositions for Targeting Tumor Microenvironment and for preventing Metastasis” (INSTITUT NATIONAL DE LA SANTÉ ET DA LA RECHERCHE MÉDICALE …, priority 2013, published 2016)

Experiments:
fibroblasts [1] = test: Fibroblast contractility (collagen lattices) and pro-invasive activity (organotypic invasion) induced by human tumour cell conditioned media; type: cell-based; design: key to Fibroblasts contractile & pro-invasive phenotype: +: induction; −: no induction
Description: (§1) In this assay, hDF or CAFs were cultured during one week in serum-free medium (with either vehicle or cytokines) or CM before embedding in matrix gel. 5×10^5 fibroblasts were embedded in a 1 ml mixture of collagen I and Matrigel18. After the gel was set at 37° C. for 1 h, 5×10^5 SCC12 were plated on top of the gel in complete media. The next day, the gel was lifted onto individual collagen coated nylon discs resting on metal bridges and fed from underneath with daily changes of complete media (with either vehicle or inhibitors), allowing the epithelial layer to grow at an air-liquid interface.
(§2) After 5 days, cultures were fixed (4% paraformaldehyde+0.25% glutaraldehyde in PBS) and processed for haematoxylin and eosin (H&E) staining by standard methods. Invasion assay was measuring the total area of SCC cells and the area of non-invading SCC cells using imageJ software (http://rsbweb.nih.gov/ij/). The value of invasion index shown is the average 1−(non-invading area/total area) of at least ten fields from three or more independent experiments. Error bars are the standard deviation.
(§3) 2.5×10^4 Fibroblasts were embedded in 100 μl of matrix gel (the Collagen-Matrigel mixture used for organotypic invasion assays) and plated into wells of a 96 well plate^57. After 1 h at 37° C., the matrices were overlaid with 100 μl serum-free medium (with either vehicle, cytokines or inhibitors) or CM. Every 2 days, medium was changed and at day 6 the gels were photographed and the respective diameters of the well and gel were measured using ImageJ. The percentage contraction was calculated using the formula 100*(well diameter−gel diameter)/well diameter.
(§4) Neutralizing antibody against LIF (AB-250-NA, R&D, Minneapolis, Minn.), IL-6 R (AB-227-NA, R&D) or TGF beta-1,2,3 (MAB1835, R&D) were used at 10 μg/ml otherwise stated. Neutralizing antibody were incubated one hour with conditioned media before being used for matrix remodelling assay and fibroblasts stimulation to neutralize the biological activity of selected cytokines.
(§5) Cancer Cells were grown to confluence, washed twice with PBS and then incubated in serum-free medium at 37° C. After 48 hours, conditioned medium was collected, centrifugated at 5000 g for 5 minutes to remove cell debris and the supernatant stored at −80° C. For immunobloting analysis, fibroblasts were stimulated with cancer cells conditioned media for 5 min, otherwise stated, and lysed as described in the immunbloting section. To analyse LIF secretion upon TGFβ-1 stimulation, fibroblasts were stimulated with 2 ng/ml TGF beta-1 for 1, 4, 24 or 48 h in serum-free medium and conditioned media was prepared as below for ELISA analysis.

hDF and hCAF = test: Matrix remodelling (collagen gel contraction) assay; type: cell-based, human; details: hLu-CAF and hBr-CAF cells, FIG. 6A
Description: as §3

fibroblasts [2] = test: Fibroblast contractility and pro-invasive activity induced by murine breast carcinoma cell conditioned media; type: cell-based, mouse; design: key: +: induction; −: no induction; details: antibodies 10 μg·ml−1
Description: as §1, §2, §3, §4, §5

STAT3 = STAT3 phosphorylation in fibroblasts (western blot); type: cell-based, human; details: hDF stimulated by TGFβ1
Description: (§6) For western blot analysis, antibodies against STAT3 (#9134), pY705-STAT3 (#9145), SMAD2 (#3122), pSer465/467-SMAD2 (#3108), pY1022/1023-JAK1 (#3331), MLC2 (#3672), pThr18/19-MLC2 (#3674) were purchased from Cell Signaling (Cell Signaling Technology, Beverly Mass.), α-tubulin from sigma (T4026, Sigma, Saint Louis, Mo.); JAK1 from Biolegend (#604402, Biolegend, San Diego, Calif.), GP-130 (#sc-655) and RhoA (#sc-418, Santa Cruz Biotechnology, Santa Cruz, Calif.), and alpha-smooth muscle actin (α-SMA) from Abcam (#Ab5694, Abcam, Cambridge, Mass.). For immunofluorescence staining, antibodies against α-SMA and fibronectin were purchased from Sigma (#A2547 and F3648 respectively, Sigma, Saint Louis, Mo.). Chemical inhibitors used: Pyridone 6 (#42009, Calbiochem, Los Angeles, Calif.) was used at […], SB431542 (#1614, Tocris bioscience, Ellisville, Mo.) at 10 μM, Y27632 (#1254, Tocris bioscience, Ellisville, Mo.) and Actinomycin D (#856258, Sigma, Saint Louis, USA) at 5 μg/ml.
For immunoblotting analysis, cells were lysed on ice in lysis buffer (25 mM Tris (pH 6.8), 2% Sodium dodecyl sulfate (SDS), 5% glycerol, 1% beta-mercaptoethanol, 0.01% bromophenol blue). Equal amounts of protein from each sample were loaded on sodium dodecyl sulfate-polyacrylamide gel electrophoresis, separated, and transferred onto nitrocellulose. The immunoblots were blocked by incubation in 5% bovine serum albumin, 10 mM Tris-HCl (ph7.5), 500 mM NaCl, 0.1% Tween 20 for 30 min at room temperature, probed with specific antibodies and then with secondary antibodies using common classical methods. Immunodetection was performed using chemiluminescent HRP subtrate (#WBKLS0500, Millipore, Billerica, Mass.).

hDF [3] = test: Fibronectin expression in hDF; type: cell-based, human; details: TGFβ1 stimulation
Description: Cells were grown on glass coverslips, fixed in 3% paraformaldehyde for 20 min at room temperature, rinsed twice in PBS and in 50 mM NH4Cl for 10 min and permeabilized with 0.5% Triton X-100 for 5 min. Cells were next blocked in PBS containing 1% bovine serum albumin (BSA) for 30 min and incubated with anti-alpha smooth muscle actin (1/400), or anti-fibronectin (1/400) antibodies in blocking buffer overnight at 4° C. After two washes in PBS, cells were incubated in the presence of a secondary antibody conjugated to Alexa 488 (1/400) for 40 min, rinsed twice in PBS, stained with DAPI (2 ug/ml) for 5 min, rinsed in water and the coverslips mounted onto glass slides using mounting media.

hDF [4] = test: LIF ELISA of TGFβ1-stimulated hDF culture medium; type: cell-based, human; details: after TGFβ1 stimulation
Description: For the quantitative determination of LIF protein levels secreted to the media, we used the human LIF ELISA Kit (#ELH-LIF-001, Raybiotech Inc, Norcross, Ga.) following manufacturer's specifications.
as §5

hDF [5] = test: qRT-PCR of IL6 family cytokine genes in TGFβ1-stimulated hDF; type: cell-based, human; details: one hour after stimulation, relative to control (Veh)
Description: RNA was isolated from total cell lysates using RNeasy Mini kit (#217004, Qiagen, Turnberry Ln Valencia, Calif.) according to the manufacturer's instructions. Reverse Transcription was performed using 500 ng cytoplasmic RNA using Superscript II reverse transcriptase (#18064-014, Invitrogen, Carlsbad, Calif.). Real time PCR was performed using Fast SYBR Green Master Mix ([…]; Applied Biosystems, Foster City, Calif.) in duplicates according to the recommendations of the manufacturer on an ABI Prism 7900HT sequence detection system (Applied Biosystems, Foster City, Calif.). Relative expression of the respective gene was determined after normalization to GAPDH and calculated with the following formula: relative expression level=2ddCT

SMAD2 = SMAD2 phosphorylation in fibroblasts (western blot); type: cell-based, human; details: hDF stimulated by TGFβ1
Description: as §6
For immunoblotting analysis, cells were lysed on ice in lysis buffer (25 mM Tris (pH 6.8), 2% Sodium dodecyl sulfate (SDS), 5% glycerol, 1% beta-mercaptoethanol, 0.01% bromophenol blue). Equal amounts of protein from each sample were loaded on sodium dodecyl sulfate-polyacrylamide gel electrophoresis, separated, and transferred onto nitrocellulose. […]

[6] = A375M2 CM (h. melanoma), antibodies 10 μg·ml−1, αLIF (50)
[7] = A375P CM (h. melanoma), antibodies 10 μg·ml−1
[8] = A549 CM (h. lung carcinoma), antibodies 10 μg·ml−1
[9] = CAL27 CM (human OSCC), antibodies 10 μg·ml−1, αLIF (50)
[10] = CAL33 CM (human OSCC), antibodies 10 μg·ml−1
[11] = CAL33_LIF CM (h. engineered cell line), antibodies 10 μg·ml−1, αLIF (50)
[12] = CAL33_mock CM (h. engineered cell line), antibodies 10 μg·ml−1
[13] = CAL60 CM (human OSCC), antibodies 10 μg·ml−1
[14] = CAL166 CM (human OSCC), antibodies 10 μg·ml−1
[15] = Detroit562 CM (human OSCC), antibodies 10 μg·ml−1
[16] = LS174 CM (h. colon carcinoma), antibodies 10 μg·ml−1
[17] = MDA-MB-231 CM (breast carcinoma), antibodies 10 μg·ml−1
[18] = MDA-MB-468 CM (breast carcinoma), antibodies 10 μg·ml−1
[19] = Mel501 CM (h. melanoma), antibodies 10 μg·ml−1
[20] = Mel1205 CM (h. melanoma), antibodies 10 μg·ml−1
[21] = SCC12 CM (human OSCC), antibodies 10 μg·ml−1
[22] = SCC13 CM (human OSCC), antibodies 10 μg·ml−1
[23] = SCC25 CM (human OSCC), antibodies 10 μg·ml−1
[24] = Sbcl2 CM (h. melanoma), antibodies 10 μg·ml−1
[25] = WM35 CM (h. melanoma), antibodies 10 μg·ml−1
[26] = WM278 CM (h. melanoma), antibodies 10 μg·ml−1
[27] = WM793 CM (h. melanoma), antibodies 10 μg·ml−1

Molecule	Fibroblasts contractile & pro-invasive phenotype (fibroblasts [1]; [6])	Fibroblasts contractile & pro-invasive phenotype (fibroblasts [1]; [7])	Fibroblasts contractile & pro-invasive phenotype (fibroblasts [1]; [8])	Fibroblasts contractile & pro-invasive phenotype (fibroblasts [1]; [9])	Fibroblasts contractile & pro-invasive phenotype (fibroblasts [1]; [10])	Fibroblasts contractile & pro-invasive phenotype (fibroblasts [1]; [11])	Fibroblasts contractile & pro-invasive phenotype (fibroblasts [1]; [12])	Fibroblasts contractile & pro-invasive phenotype (fibroblasts [1]; [13])	Fibroblasts contractile & pro-invasive phenotype (fibroblasts [1]; [14])	Fibroblasts contractile & pro-invasive phenotype (fibroblasts [1]; [15])	Fibroblasts contractile & pro-invasive phenotype (fibroblasts [1]; [16])	Fibroblasts contractile & pro-invasive phenotype (fibroblasts [1]; [17])	Fibroblasts contractile & pro-invasive phenotype (fibroblasts [1]; [18])	Fibroblasts contractile & pro-invasive phenotype (fibroblasts [1]; [19])	Fibroblasts contractile & pro-invasive phenotype (fibroblasts [1]; [20])	Fibroblasts contractile & pro-invasive phenotype (fibroblasts [1]; [21])	Fibroblasts contractile & pro-invasive phenotype (fibroblasts [1]; [22])	Fibroblasts contractile & pro-invasive phenotype (fibroblasts [1]; [23])	Fibroblasts contractile & pro-invasive phenotype (fibroblasts [1]; [24])	Fibroblasts contractile & pro-invasive phenotype (fibroblasts [1]; [25])	other results
CC(C)(C)c1nc2c3cc[nH]c(=O)c3c3cc(F)ccc3c2[nH]1 [P6, Pyridone 6]	−	−	−	−	−	−	−	−	−	−	−	−	−	−	−	−	−	−	−	−	Fibroblasts contractile & pro-invasive phenotype (fibroblasts [1]; [26]): −; Fibroblasts contractile & pro-invasive phenotype (fibroblasts [1]; [27]): −; Fibroblasts contractile & pro-invasive phenotype (fibroblasts [1]; hPK CM, antibodies 10 μg·ml−1): −; pro-invasive potential (matrix remodelling) of hCAF (hDF and hCAF): required JAK signalling to sustain their pro-invasive potential; Fibroblasts contractile & pro-invasive phenotype (fibroblasts [2]; 4T1 CM (murine breast carcinoma)): −; Fibroblasts contractile & pro-invasive phenotype (fibroblasts [2]; 4T07 CM (murine breast carcinoma)): −; Fibroblasts contractile & pro-invasive phenotype (fibroblasts [2]; 67NR CM (murine breast carcinoma)): −; Fibroblasts contractile & pro-invasive phenotype (fibroblasts [2]; 410.4 CM (murine breast carcinoma)): −; STAT3 phosphorylation induced by TGFβ1 (STAT3): blocked; fibronectin expression pattern (hDF [3]): slightly reduced
NC(=O)c1ccc(-c2nc(-c3ccc4c(c3)OCO4)c(-c3ccccn3)[nH]2)cc1 [SB431542]	+	+	+	+	−	+	−	+	+	+	+	+	+	−	+	+	+	+	−	+	Fibroblasts contractile & pro-invasive phenotype (fibroblasts [1]; [26]): +; Fibroblasts contractile & pro-invasive phenotype (fibroblasts [1]; [27]): +; Fibroblasts contractile & pro-invasive phenotype (fibroblasts [1]; hPK CM, antibodies 10 μg·ml−1): −
C[C@@H](N)[C@H]1CC[C@H](C(=O)Nc2ccncc2)CC1 [Y27632]																					pro-invasive fibroblast conversion induced by CAL33-LIF CM (fibroblasts [1]; CAL33-LIF CM): blocked; action of SCC12 and SCC13 CM (pro-invasive fibroblast activation) (fibroblasts [1]; SCC12 and SCC13 CM): completely abrogated
TGFβ1: TGF beta-1 cytokine (#100-21, Peprotech), used at 2 ng·ml-1																					LIF in hDF cell culture medium, 24 h peak (hDF [4]): 200 pg/mL; increase of IL6 mRNA steady state levels (hDF [5]): 5 fold; increase of LIF mRNA steady state levels (hDF [5]): 100 fold
siRNA GP130-IL6ST: siRNA targeting GP130-IL6ST (SEQ ID NO: 5 and 6), purchased from Dharmacon (chain 1 CUAAUUACAUUGUCUGGAA; chain 2 CUAAGGAGCAAUAUACUAU; listed as RNA, chemistry not given here)																					SMAD2 activation by TGFβ1 (SMAD2): without affecting; STAT3 phosphorylation induced by TGFβ1 (STAT3): hampered
